# Measured values reported in US7754683B2, “Bioactive peptide of bone morphogenetic protein-2” (priority 2005, dated 2010).
# Square brackets hold non-standard residues; d marks the D form. Ends that are not written are not given here. pS = N[C@@H](COP(=O)(O)O)C(=O)O
# Tested on: Wistar rats
# Assay: Experimental research on animal ectopic osteogenesis (peptide/collagen sponge implantation)
# Type: in vivo
# Conditions: for ectopic osteogenesis by CT scan imaging: 0.4 mg peptide on collagen sponge implanted in sacral spine muscles, CT at 3, 6, 8 weeks; for ectopic osteogenesis ability (overall result) / formation of new bone by histological examination (HE staining): 0.4 mg peptide/collagen sponge; for formation of new bone by histological examination (HE staining): eighth week
# Experimental: The scaffold material is collagen sponge, the size of which is 5×5×5 mm^3. Three bone morphogenetic protein-2 active peptides are dissolved into saline solution, and then dropped on the collagen sponge in accordance with the 0.4 mg dose. Meanwhile, equivalent saline solution is dropped on the control pure collagen sponge, and freeze-dried for reserve after complete absorption.
# (2) groups: 36 Wistar rats are randomly divided into three experimental groups, namely 0.4 mg bone morphogenetic protein-2 active peptide 1/collagen sponge group, 0.4 mg bone morphogenetic protein-2 active peptide 2/[…] group and 0.4 mg bone morphogenetic protein-2 active peptide 3/collagen sponge group, and the control group is using pure collagen sponge.
# The anesthesia of rats is achieved by ketamine intraperitoneal injection. For two experimental groups, 0.4 mg bone morphogenetic protein-2 active peptide 1/collagen sponge and 0.4 mg bone morphogenetic protein-2 active peptide 2/collagen sponge are respectively implanted with 1 cm incision in the sacral spine muscles on the back. For […], pure collagen sponge of the same size is implanted into the gaps along one side of sacral spine muscles. CT radiography inspection of three rats groups is done after implantation in the 3, 6, 8 weeks, and then four rats of each group are killed at each time point. Local tissues of implant materials are sampled, after fixation by formaldehyde and paraffin-embedded sections, and histological observation is done with HE staining.
Substance,ectopic osteogenesis by CT scan imaging,ectopic osteogenesis ability (overall result),formation of new bone by histological examination (HE staining)
C16H31O—NH—CCCCGGGS^[PO4]KIPKASSVPTELSAISTLYL,significant ectopic osteogenesis,good ectopic osteogenesis ability,significant formation of new bone
CCCCDDDS^[PO4]KIPKASSVPTELSAISTLYL (CCCCDDD[pS]KIPKASSVPTELSAISTLYL; cysteine pairing not given here),significant ectopic osteogenesis,good ectopic osteogenesis ability,significant formation of new bone
S^[PO4]KIPKASSVPTELSAISTLYLDDD ([pS]KIPKASSVPTELSAISTLYLDDD),significant ectopic osteogenesis,good ectopic osteogenesis ability,significant formation of new bone
